The source of these data is patent US20030143251A1, “Skin preparations for external use” (priority 2000, published 2003).

Where two headings read alike, the source gives them in different places.

Data set [1] can be described thus: Maintenance on mouse skin samples (residual rate by HPLC). It counts as in vitro ADME. To be noted: for Maintenance 19 hours after starting incubation: 0.5 g and 2.0 g mouse skin; for Maintenance 19 hours after starting incubation / Residual rate: 0.037M, pH 7.0, 37° C.; for Residual rate: 0.5 g of the skin sample, 40 hours. The method, then:
The back skin was depilated and peeled off after sacrificing mice by cervical dislocation at 24 weeks of age.
Each sample was tested in triplicate (n=3) in all of the 4 groups, and mean residual rates were calculated.
HPLC was conducted under the following conditions:
Solvent: methanol-water (20:80, v/v, adjusted to pH 2.5 using phosphoric acid)

Data set [2] can be described thus: Maintenance in mouse skin extract fluid (residual rate by HPLC). The conditions noted are these: skin extract fluid 1:1 with 0.1M solution, pH 7.0, 37° C. It counts as in vitro ADME. The procedure:
The skin samples obtained in Evaluation example 5 were weighed, and 2.6 g was added to sodium citrate-phosphate buffer solution (5.2 ml, pH 7.0) and homogenized. The homogenate obtained was used as skin extract fluid.
Each sample was tested in triplicate (n=3) in both groups, and mean residual rates were calculated.
HPLC was conducted under the conditions used in Evaluation example 5.

A short description of data set [3]: Stability (decomposition rate) in acidic, neutral and alkaline aqueous solutions. It counts as physicochemical.
Data set [4] relates to mushroom-derived tyrosinase. The conditions noted are these: cited from earlier work.
For data set [5] the following is noted: reported; cited from earlier work.
The mark [6] stands for this setting: pH 5.5, aqueous solution, 0.045M, 37° C.
Setting [7] is: pH 6.5, aqueous solution, 0.045M, 37° C.
The mark [8] stands for this setting: pH 7.5, aqueous solution, 0.045M, 37° C.

For the molecule `OC[C@H]1O[C@@H](Oc2ccc(O)cc2)[C@H](O)[C@@H](O)[C@@H]1O` [β-Arbutin, hydroquinone-β-glucopyranoside, reference compound], in data set [1], the “Maintenance 19 hours after starting incubation” value is “remained virtually intact” and the Residual rate is given as 0%. Moreover, the “Maintenance 4 hours after starting incubation” value in data set [2] was “remained virtually intact”.
Turning to `OCC1OC(Oc2ccc(O)cc2)C(O)C(O)C1O` [α-Arbutin, hydroquinone-α-D-glucopyranoside], the half-life at 0.045 M in data set [3] (buffer, pH 6.5) was 53.3 h; in data set [3] (buffer, pH 7.5) it was 31.5 h. The results for the Decomposition rate constant in data set [3] (setting [6]), in data set [3] (setting [7]) and in data set [3] (setting [8]) were 0, 0.013 and 0.022, respectively. In data set [1], the “Maintenance 19 hours after starting incubation” value is recorded as “remained virtually intact”. This molecule showed a Residual rate in data set [1] of 87.5%. The “Residual rate, times larger than that of β-arbutin” value in data set [1] (2.0 g of the skin sample, 40 hours after incubation) is recorded as “about 10 times”. Besides, the “Maintenance 4 hours after starting incubation” value in data set [2] was “remained virtually intact”. Also, the “Residual rate compared with the β-arbutin group” value in data set [2] (20 hours) is recorded as “more than twice higher”. In addition, the “Effect on mushroom-derived tyrosinase activity” value in data set [4] (Tokkaihei No. 5-932) is “promotes, rather than inhibits”. Also, the “Inhibition of mushroom-derived tyrosinase” value in data set [4] (Tokkaihei No. 6-153976) is recorded as “effective in inhibiting mushroom-derived tyrosinase”. Also, the Tyrosinase inhibiting activity result in data set [4] (mushroom-derived tyrosinase, Biochem. Biotech. Biochem., 59, 143 (1995)) is “does not show tyrosinase inhibiting activity”.
Consider `Oc1ccc(O)cc1` [Hydroquinone, hydroquinone], for which the half-life at 0.045 M in data set [3] (aqueous solution, pH 5.5, over pH 5.5 to 7.5, 37° C., read-out: Half-life in alkaline and acidic regions) was 0.6 to 10.8 h; in data set [3] (aqueous solution, pH 5.5, pH 5.5, aqueous solution, 0.045M, 37° C., α-arbutin determined after 69 hrs, read-out: Half-life (converted)) it was 10.8 h; in data set [3] (aqueous solution, pH 6.5, pH 6.5, aqueous solution, 0.045M, 37° C., read-out: Half-life (converted)), 0.8 h; in data set [3] (aqueous solution, pH 7.5, pH 7.5, aqueous solution, 0.045M, 37° C., read-out: Half-life (converted)) it was 0.6 h. Also, the Decomposition rate constant in data set [3] (setting [6]) is 0.064; in data set [3] (setting [7]) it was 0.903; in data set [3] (setting [8]), 1.117. For the same molecule, in data set [5], the “Cytotoxicity, times more cytotoxic than β-arbutin” value is “about 400 times”.

For orientation: half-life means the time needed for the level to fall by half in the phase considered.
